Data from patent US11541028B2, “Peptide pharmaceuticals for treatment of NASH and other disorders” (Mederis Diabetes LLC, priority 2018, dated 2023).
Numbered stars: 1 amine (or outer) side, 2 acyl side, 3 side chain; on linkers, the order of the positions; unused ones are H or OH. Bridge positions count the residues as written; N and C are the ends. Square brackets hold non-standard residues; d marks the D form. Side chains are listed from the residue outwards. Peptide text beside a SMILES is read from it. * marks the point of attachment. Melibiouronoyl(1β-O-dodecyl) = CCCCCCCCCCCCO[C@@H]1O[C@H](CO[C@H]2O[C@H](C(=O)*)[C@H](O)[C@H](O)[C@H]2O)[C@@H](O)[C@H](O)[C@H]1O; X2 = CCCCCCCCCCCCCCO[C@@H]1O[C@H](CO[C@H]2O[C@H](C(=O)*)[C@H](O)[C@H](O)[C@H]2O)[C@@H](O)[C@H](O)[C@H]1O; βGlcA(1-O-hexadecyl) = CCCCCCCCCCCCCCCCO[C@@H]1O[C@H](C(=O)*)[C@@H](O)[C@H](O)[C@H]1O; γGlu = O=C(O)[C@H](CCC(=O)[*:2])N[*:1]; Aib = CC(C)(N)C(=O)O

How the values were obtained:
human GLP-1 receptor = biological target: T1, human GLP-1 receptor (Homo sapiens, UniProt P43220); assay: DiscoveRx LeadHunter cellular assay, cAMP stimulation, GLP-1 receptor in CHO cells; format: cell-based; conditions: human GLP-1 receptor in CHO cells (DiscoveRx); read-out: EC50 cAMP GLP-1 R
T1 construct: host or cells: CHO cells
T1 sequence (P43220 24-463): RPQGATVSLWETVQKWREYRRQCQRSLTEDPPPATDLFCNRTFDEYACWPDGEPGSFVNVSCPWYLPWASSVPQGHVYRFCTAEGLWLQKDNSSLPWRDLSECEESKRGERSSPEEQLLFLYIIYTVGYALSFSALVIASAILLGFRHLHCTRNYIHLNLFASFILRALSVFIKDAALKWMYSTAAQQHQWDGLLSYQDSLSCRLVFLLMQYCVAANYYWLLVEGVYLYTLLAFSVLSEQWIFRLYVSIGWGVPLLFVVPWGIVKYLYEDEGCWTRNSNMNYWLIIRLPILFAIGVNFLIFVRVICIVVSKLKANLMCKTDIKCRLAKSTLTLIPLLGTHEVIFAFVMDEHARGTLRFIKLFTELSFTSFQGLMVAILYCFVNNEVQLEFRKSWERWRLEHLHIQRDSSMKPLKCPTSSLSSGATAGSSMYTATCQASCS
Experimental: (§1) A further series of cellular assays was carried out with standard cellular assays (DiscoveRx, LeadHunter assays) using readout of cAMP stimulation or arrestin activation. Compounds were weighed precisely in an amount of about 1 mg and shipped to DiscoveRx for dilution and assay.

human glucagon receptor = biological target: T2, human glucagon receptor (Homo sapiens, UniProt P47871); assay: DiscoveRx LeadHunter cellular assay, cAMP stimulation, glucagon receptor in CHO cells; format: cell-based
T2 construct: host or cells: CHO cells
T2 sequence (P47871 26-477): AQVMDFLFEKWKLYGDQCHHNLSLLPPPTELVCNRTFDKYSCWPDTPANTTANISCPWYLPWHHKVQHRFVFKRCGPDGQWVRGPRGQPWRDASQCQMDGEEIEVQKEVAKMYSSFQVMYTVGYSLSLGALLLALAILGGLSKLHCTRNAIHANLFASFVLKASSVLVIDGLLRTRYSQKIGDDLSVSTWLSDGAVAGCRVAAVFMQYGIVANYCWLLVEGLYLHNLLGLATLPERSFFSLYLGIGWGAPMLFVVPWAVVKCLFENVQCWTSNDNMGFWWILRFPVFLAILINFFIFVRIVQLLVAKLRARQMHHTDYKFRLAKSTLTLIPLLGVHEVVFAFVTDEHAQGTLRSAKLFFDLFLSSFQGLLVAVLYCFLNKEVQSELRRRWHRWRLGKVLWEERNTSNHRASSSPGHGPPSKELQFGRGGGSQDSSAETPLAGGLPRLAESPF
Experimental: as §1

SMILES | EC50 (human GLP-1 receptor) [nM] | EC50 (human glucagon receptor) [nM]
CCCCCCCCCCCCO[C@@H]1O[C@H](CO[C@H]2O[C@H](C(=O)NCCCC[C@@H]3NC(=O)[C@@H](NC(=O)[C@H](CC(=O)O)NC(=O)[C@H](CC(C)C)NC(=O)[C@H](Cc4ccc(O)cc4)NC(=O)[C@H](CCCCN)NC(=O)[C@H](CO)NC(=O)[C@H](Cc4ccc(O)cc4)NC(=O)[C@H](CC(=O)O)NC(=O)[C@H](CO)NC(=O)[C@@H](NC(=O)[C@H](Cc4ccccc4)NC(=O)[C@@H](NC(=O)CNC(=O)[C@H](CCC(N)=O)NC(=O)C(C)(C)NC(=O)[C@@H](N)Cc4c[nH]cn4)[C@@H](C)O)[C@@H](C)O)CCC(=O)NCCCC[C@@H](C(=O)N[C@@H](CCC(=O)O)C(=O)N[C@@H](Cc4ccccc4)C(=O)N[C@H](C(=O)N[C@@H](CCC(=O)O)C(=O)N[C@@H](Cc4c[nH]c5ccccc45)C(=O)N[C@@H](CC(C)C)C(=O)N[C@@H](CC(C)C)C(=O)N[C@@H](CCC(N)=O)C(=O)N[C@H](C(N)=O)[C@@H](C)O)[C@@H](C)CC)NC(=O)[C@H](C)NC(=O)[C@H](C)NC3=O)[C@H](O)[C@H](O)[C@H]2O)[C@@H](O)[C@H](O)[C@H]1O [EU-A1591] (H-H[Aib]QGTFTSDYSKYLDEK(Melibiouronoyl(1β-O-dodecyl))AAKEFIEWLLQT-NH2; lactam 16-20; N-terminus assumed) | 0.073 | 0.286
CCCCCCCCCCCCO[C@@H]1O[C@H](CO[C@H]2O[C@H](C(=O)NCCCC[C@H](NC(=O)[C@@H](NC(=O)[C@H](Cc3ccccc3)NC(=O)[C@H](CCC(=O)O)NC(=O)[C@@H]3CCCCNC(=O)CC[C@H](NC(=O)[C@H](CC(=O)O)NC(=O)[C@H](CC(C)C)NC(=O)[C@H](Cc4ccc(O)cc4)NC(=O)[C@H](CCCCN)NC(=O)[C@H](CO)NC(=O)[C@H](Cc4ccc(O)cc4)NC(=O)[C@H](CC(=O)O)NC(=O)[C@H](CO)NC(=O)[C@@H](NC(=O)[C@H](Cc4ccccc4)NC(=O)[C@@H](NC(=O)CNC(=O)[C@H](CCC(N)=O)NC(=O)C(C)(C)NC(=O)[C@@H](N)Cc4c[nH]cn4)[C@@H](C)O)[C@@H](C)O)C(=O)N[C@@H](CCC(N)=O)C(=O)N[C@@H](C)C(=O)N[C@@H](C)C(=O)N3)[C@@H](C)CC)C(=O)N[C@@H](Cc3c[nH]c4ccccc34)C(=O)N[C@@H](CC(C)C)C(=O)N[C@@H](CC(C)C)C(=O)N[C@@H](CCC(N)=O)C(=O)N[C@H](C(=O)O)[C@@H](C)O)[C@H](O)[C@H](O)[C@H]2O)[C@@H](O)[C@H](O)[C@H]1O [EU-A1576] | 0.032 | 0.07
CCCCCCCCCCCCCCO[C@@H]1O[C@H](CO[C@H]2O[C@H](C(=O)NCCCC[C@H](NC(=O)[C@H](CC(=O)O)NC(=O)[C@H](CO)NC(=O)[C@@H](NC(=O)[C@H](Cc3ccccc3)NC(=O)[C@@H](NC(=O)CNC(=O)[C@H](CCC(N)=O)NC(=O)C(C)(C)NC(=O)[C@@H](N)Cc3c[nH]cn3)[C@@H](C)O)[C@@H](C)O)C(=O)N[C@@H](CO)C(=O)N[C@@H](CCCCN)C(=O)N[C@@H](Cc3ccc(O)cc3)C(=O)N[C@@H](CC(C)C)C(=O)N[C@@H](CC(=O)O)C(=O)N[C@H]3CCC(=O)NCCCC[C@@H](C(=O)N[C@@H](CCC(=O)O)C(=O)N[C@@H](Cc4ccccc4)C(=O)N[C@H](C(=O)N[C@@H](CCC(N)=O)C(=O)N[C@@H](Cc4c[nH]c5ccccc45)C(=O)N[C@@H](CC(C)C)C(=O)N[C@@H](CC(C)C)C(=O)N[C@@H](CCC(N)=O)C(=O)N[C@H](C(N)=O)[C@@H](C)O)[C@@H](C)CC)NC(=O)[C@H](C)NC(=O)[C@H](C)NC(=O)[C@H](CCC(N)=O)NC3=O)[C@H](O)[C@H](O)[C@H]2O)[C@@H](O)[C@H](O)[C@H]1O [EU-A1595] (H-H[Aib]QGTFTSDK(X2)SKYLDEQAAKEFIQWLLQT-NH2; lactam 16-20; N-terminus assumed) | 0.021 | 0.113
CCCCCCCCCCCCCCCCO[C@@H]1O[C@H](C(=O)NCCCC[C@H](N)C(=O)NCCCC[C@H](NC(=O)[C@@H](NC(=O)[C@H](Cc2ccccc2)NC(=O)[C@H](CCC(=O)O)NC(=O)[C@@H]2CCCCNC(=O)CC[C@H](NC(=O)[C@H](CC(=O)O)NC(=O)[C@H](CC(C)C)NC(=O)[C@H](Cc3ccc(O)cc3)NC(=O)[C@H](CCCCN)NC(=O)[C@H](CO)NC(=O)[C@H](Cc3ccc(O)cc3)NC(=O)[C@H](CC(=O)O)NC(=O)[C@H](CO)NC(=O)[C@@H](NC(=O)[C@H](Cc3ccccc3)NC(=O)[C@@H](NC(=O)CNC(=O)[C@H](CCC(N)=O)NC(=O)C(C)(C)NC(=O)[C@@H](N)Cc3c[nH]cn3)[C@@H](C)O)[C@@H](C)O)C(=O)N[C@@H](CCC(N)=O)C(=O)N[C@@H](C)C(=O)N[C@@H](C)C(=O)N2)[C@@H](C)CC)C(=O)N[C@@H](Cc2c[nH]c3ccccc23)C(=O)N[C@@H](CC(C)C)C(=O)N[C@@H](CC(C)C)C(=O)N[C@@H](CCC(N)=O)C(=O)N[C@H](C(N)=O)[C@@H](C)O)[C@@H](O)[C@H](O)[C@H]1O [EU-A1713] | 0.308 | 2.51
CCCCCCCCCCCCO[C@@H]1O[C@H](CO[C@H]2O[C@H](C(=O)NCCCC[C@H](NC(=O)[C@H](CC(=O)O)NC(=O)[C@H](CO)NC(=O)[C@@H](NC(=O)[C@H](Cc3ccccc3)NC(=O)[C@@H](NC(=O)CNC(=O)[C@H](CCC(N)=O)NC(=O)C(C)(C)NC(=O)[C@@H](N)Cc3c[nH]cn3)[C@@H](C)O)[C@@H](C)O)C(=O)N[C@@H](CO)C(=O)N[C@@H](CCCCN)C(=O)N[C@@H](Cc3ccc(O)cc3)C(=O)N[C@@H](CC(C)C)C(=O)N[C@@H](CC(=O)O)C(=O)N[C@H]3CCC(=O)NCCCC[C@@H](C(=O)N[C@@H](CCC(=O)O)C(=O)N[C@@H](Cc4ccccc4)C(=O)N[C@H](C(=O)N[C@@H](CCC(N)=O)C(=O)N[C@@H](Cc4c[nH]c5ccccc45)C(=O)N[C@@H](CC(C)C)C(=O)N[C@@H](CC(C)C)C(=O)N[C@@H](CCC(N)=O)C(=O)N[C@H](C(N)=O)[C@@H](C)O)[C@@H](C)CC)NC(=O)[C@H](C)NC(=O)[C@H](C)NC(=O)[C@H](CCC(N)=O)NC3=O)[C@H](O)[C@H](O)[C@H]2O)[C@@H](O)[C@H](O)[C@H]1O [EU-A1594] (H-H[Aib]QGTFTSDK(Melibiouronoyl(1β-O-dodecyl))SKYLDEQAAKEFIQWLLQT-NH2; lactam 16-20) | 0.011 | 0.068
CCCCCCCCCCCCCCCCO[C@@H]1O[C@H](C(=O)N[C@@H](CCC(=O)NCCCC[C@H](NC(=O)[C@H](C)NC(=O)[C@H](C)NC(=O)[C@H](CCC(N)=O)NC(=O)[C@@H]2CCCCNC(=O)CC[C@H](NC(=O)[C@H](CO)NC(=O)[C@H](Cc3ccc(O)cc3)NC(=O)[C@H](CC(=O)O)NC(=O)[C@H](CO)NC(=O)[C@@H](NC(=O)[C@H](Cc3ccccc3)NC(=O)[C@@H](NC(=O)CNC(=O)[C@H](CCC(N)=O)NC(=O)C(C)(C)NC(=O)[C@@H](N)Cc3c[nH]cn3)[C@@H](C)O)[C@@H](C)O)C(=O)N[C@@H](Cc3ccc(O)cc3)C(=O)N[C@@H](CC(C)C)C(=O)N[C@@H](CC(=O)O)C(=O)N2)C(=O)N[C@@H](CCC(=O)O)C(=O)N[C@@H](Cc2ccccc2)C(=O)N[C@H](C(=O)N[C@@H](CCC(N)=O)C(=O)N[C@@H](Cc2c[nH]c3ccccc23)C(=O)N[C@@H](CC(C)C)C(=O)N[C@@H](CC(C)C)C(=O)N[C@@H](CCC(N)=O)C(=O)N[C@H](C(N)=O)[C@@H](C)O)[C@@H](C)CC)C(=O)O)[C@@H](O)[C@H](O)[C@H]1O [EU-A1788] (H-H[Aib]QGTFTSDYSEYLDKQAAK([γGlu-βGlcA(1-O-hexadecyl)])EFIQWLLQT-NH2; lactam 12-16; N-terminus assumed) | 0.232 | 10
CCCCCCCCCCCCO[C@@H]1O[C@H](C(=O)NCCCC[C@H](N)C(=O)NCCCC[C@H](NC(=O)[C@@H](NC(=O)[C@H](Cc2ccccc2)NC(=O)[C@H](CCC(=O)O)NC(=O)[C@@H]2CCCCNC(=O)CC[C@H](NC(=O)[C@H](CC(=O)O)NC(=O)[C@H](CC(C)C)NC(=O)[C@H](Cc3ccc(O)cc3)NC(=O)[C@H](CCCCN)NC(=O)[C@H](CO)NC(=O)[C@H](Cc3ccc(O)cc3)NC(=O)[C@H](CC(=O)O)NC(=O)[C@H](CO)NC(=O)[C@@H](NC(=O)[C@H](Cc3ccccc3)NC(=O)[C@@H](NC(=O)CNC(=O)[C@H](CCC(N)=O)NC(=O)C(C)(C)NC(=O)[C@@H](N)Cc3c[nH]cn3)[C@@H](C)O)[C@@H](C)O)C(=O)N[C@@H](CCC(N)=O)C(=O)N[C@@H](C)C(=O)N[C@@H](C)C(=O)N2)[C@@H](C)CC)C(=O)N[C@@H](Cc2c[nH]c3ccccc23)C(=O)N[C@@H](CC(C)C)C(=O)N[C@@H](CC(C)C)C(=O)N[C@@H](CCC(N)=O)C(=O)N[C@H](C(N)=O)[C@@H](C)O)[C@@H](O)[C@H](O)[C@H]1O [EU-A1711] | 0.009 | 0.026
CCCCCCCCCCCCCCCCO[C@@H]1O[C@H](C(=O)N[C@@H](CCC(=O)NCCCC[C@H](NC(=O)[C@@H](NC(=O)[C@H](Cc2ccccc2)NC(=O)[C@H](CCC(=O)O)NC(=O)[C@@H]2CCCCNC(=O)CC[C@H](NC(=O)[C@H](CC(=O)O)NC(=O)[C@H](CC(C)C)NC(=O)[C@H](Cc3ccc(O)cc3)NC(=O)[C@H](CCCCN)NC(=O)[C@H](CO)NC(=O)[C@H](Cc3ccc(O)cc3)NC(=O)[C@H](CC(=O)O)NC(=O)[C@H](CO)NC(=O)[C@@H](NC(=O)[C@H](Cc3ccccc3)NC(=O)[C@@H](NC(=O)CNC(=O)[C@H](CCC(N)=O)NC(=O)C(C)(C)NC(=O)[C@@H](N)Cc3c[nH]cn3)[C@@H](C)O)[C@@H](C)O)C(=O)N[C@@H](CCC(N)=O)C(=O)N[C@@H](C)C(=O)N[C@@H](C)C(=O)N2)[C@@H](C)CC)C(=O)N[C@@H](Cc2c[nH]c3ccccc23)C(=O)N[C@@H](CC(C)C)C(=O)N[C@@H](CC(C)C)C(=O)N[C@@H](CCC(N)=O)C(=O)N[C@H](C(N)=O)[C@@H](C)O)C(=O)O)[C@@H](O)[C@H](O)[C@H]1O [EU-A1719] | 0.095 | 0.746
